# Literature values, collected in PMC7395068, “The evolution of strategies to minimise the risk of human drug-induced liver injury (DILI) in drug discovery and development” (Archives of Toxicology, 2020).
# Where two headings read alike, the source gives them in different places.
# Conditions: cited from earlier work
# [1] = binary in vivo DILI call given beside the severity category, ref Chen 2016
# [2] = human DILI concern category (LTKB DILIrank), ref Chen 2016
# [3] = LTKB DILIrank category, ref Chen 2016
# [4] = binary DILI call, ref Chen 2016
# [5] = binary in vivo human DILI call, ref Chen 2016
# [6] = human DILI, LTKB DILIrank category, ref Chen 2016
compound,measurement,setting,value
CNC(=O)CN(CCN(CCN(CC(=O)[O-])CC(=O)NC)CC(=O)[O-])CC(=O)[O-].[Gd+3] [gadodiamide],"DILI +VE (5-8), DILI -VE (-4)",in vivo,-VE
same,DILI severity category,in vivo,Ambiguous DILI-concern
c1ccc2[nH]c(-c3cscn3)nc2c1 [thiabendazole],"DILI +VE (5-8), DILI -VE (-4)",[1],+VE
same,DILI severity category,[2],vMost-DILI-Concern
colestipol,"DILI +VE (5-8), DILI -VE (-4)",in vivo,-VE
same,DILI severity category,in vivo,Ambiguous DILI-concern
CC1(C)S[C@@H]2[C@H](NC(=O)C(C(=O)O)c3ccccc3)C(=O)N2[C@H]1C(=O)O (stereo partly shown) [carbenicillin],DILI severity category,[3],vLess-DILI-Concern
O=C(O)C1N=C(c2ccccc2)c2cc(Cl)ccc2NC1=O (stereo not shown) [clorazepate],DILI severity category,[3],Ambiguous DILI-concern
same,"DILI +VE (5-8), DILI -VE (-4)",[4],-VE
galsulfase,"DILI +VE (5-8), DILI -VE (-4)",in vivo,-VE
same,DILI severity category,in vivo,vNo-DILI-Concern
COc1nc(N)nc2c1ncn2[C@@H]1O[C@H](CO)[C@@H](O)[C@@H]1O [nelarabine],"DILI +VE (5-8), DILI -VE (-4)",[1],+VE
same,DILI severity category,[2],vLess-DILI-Concern
COC(=O)C(c1ccccc1)C1CCCCN1 (stereo not shown) [methylphenidate],"DILI +VE (5-8), DILI -VE (-4)",in vivo,+VE
same,DILI severity category,in vivo,vLess-DILI-Concern
NC(=O)C(c1ccccc1)(c1ccccc1)[C@@H]1CCN(CCc2ccc3c(c2)CCO3)C1 [darifenacin],"DILI +VE (5-8), DILI -VE (-4)",[5],-VE
same,DILI severity category,[6],vNo-DILI-Concern
O=C(c1cc(O)c(O)c(O)c1)c1ccc(O)c(O)c1O [exifone],"DILI +VE (5-8), DILI -VE (-4)",[5],+VE
same,DILI severity category,[6],vMost-DILI-Concern
Cc1nnc2n1-c1ccc(Cl)cc1C(c1ccccc1)=NC2 [alprazolam],"DILI +VE (5-8), DILI -VE (-4)",in vivo,+VE
same,DILI severity category,in vivo,vLess-DILI-Concern
CCOC(=O)Nc1ccc2c(c1)N(C(=O)CCN1CCOCC1)c1ccccc1S2 [moricizine],"DILI +VE (5-8), DILI -VE (-4)",[1],-VE
same,DILI severity category,[2],Ambiguous DILI-concern
CC(C)C[C@H](NC(=O)[C@@H](COC(C)(C)C)NC(=O)[C@H](Cc1ccc(O)cc1)NC(=O)[C@H](CO)NC(=O)[C@H](Cc1c[nH]c2ccccc12)NC(=O)[C@H](Cc1cnc[nH]1)NC(=O)[C@@H]1CCC(=O)N1)C(=O)N[C@@H](CCCNC(=N)N)C(=O)N1CCC[C@H]1C(=O)NNC(N)=O [goserelin],"DILI +VE (5-8), DILI -VE (-4)",[5],-VE
same,DILI severity category,[6],Ambiguous DILI-concern
CC[C@H](C)[C@@H]1NC(=O)[C@H](Cc2ccc(O)cc2)NC(=O)[C@@H](N)CSSC[C@@H](C(=O)N2CCC[C@H]2C(=O)N[C@@H](CC(C)C)C(=O)NCC(N)=O)NC(=O)[C@H](CC(N)=O)NC(=O)[C@H](CCC(N)=O)NC1=O [oxytocin],"DILI +VE (5-8), DILI -VE (-4)",in vivo,-VE
same,DILI severity category,in vivo,vNo-DILI-Concern
C[C@H]1C[C@@H]2[C@H]([C@@H](O)C[C@@]3(C)[C@H]2CC[C@]3(O)C(=O)CO)[C@@]2(C)C=CC(=O)C=C12 [methylprednisolone],"DILI +VE (5-8), DILI -VE (-4)",[1],+VE
same,DILI severity category,[2],vLess-DILI-Concern
peginterferon alfa-2a,"DILI +VE (5-8), DILI -VE (-4)",in vivo,-VE
same,DILI severity category,in vivo,Ambiguous DILI-concern
alteplase,"DILI +VE (5-8), DILI -VE (-4)",in vivo,-VE
same,DILI severity category,in vivo,vNo-DILI-Concern
aprotinin,DILI severity category,[3],Ambiguous DILI-concern
same,"DILI +VE (5-8), DILI -VE (-4)",[4],-VE
Fc1ccccc1C1=NCC(=S)N(CC(F)(F)F)c2ccc(Cl)cc21 [quazepam],"DILI +VE (5-8), DILI -VE (-4)",[1],-VE
same,DILI severity category,[2],vNo-DILI-Concern
CC(C)C(=O)Oc1ccc(CO)cc1[C@H](CCN(C(C)C)C(C)C)c1ccccc1 [fesoterodine],"DILI +VE (5-8), DILI -VE (-4)",[5],-VE
same,DILI severity category,[6],vNo-DILI-Concern
O=C([O-])CN(CCN(CC(=O)[O-])CC(COP(=O)([O-])OC1CCC(c2ccccc2)(c2ccccc2)CC1)N(CC(=O)[O-])CC(=O)[O-])CC(=O)[O-].[Gd+3].[Na+].[Na+].[Na+] (stereo not shown) [gadofosveset trisodium],"DILI +VE (5-8), DILI -VE (-4)",in vivo,-VE
same,DILI severity category,in vivo,vNo-DILI-Concern
erythropoietin,"DILI +VE (5-8), DILI -VE (-4)",in vivo,-VE
same,DILI severity category,in vivo,vNo-DILI-Concern
CN(C)CCCC1c2ccccc2Nc2ccc(Cl)cc21 (stereo not shown) [clomacran],DILI severity category,[3],vMost-DILI-Concern
C=CC[N+]1([C@H]2C[C@H]3[C@@H]4CC[C@H]5C[C@H](O)[C@@H](N6CCOCC6)C[C@]5(C)[C@H]4CC[C@]3(C)[C@H]2OC(C)=O)CCCC1 [rocuronium],"DILI +VE (5-8), DILI -VE (-4)",in vivo,-VE
same,DILI severity category,in vivo,vNo-DILI-Concern
CCC1(C)CC(=O)NC1=O (stereo not shown) [ethosuximide],"DILI +VE (5-8), DILI -VE (-4)",[5],-VE
same,DILI severity category,[6],Ambiguous DILI-concern
abatacept,"DILI +VE (5-8), DILI -VE (-4)",in vivo,+VE
same,DILI severity category,in vivo,vLess-DILI-Concern
CCCCCNC(=N)N/N=C/c1c[nH]c2ccc(OC)cc12 [tegaserod],"DILI +VE (5-8), DILI -VE (-4)",[1],-VE
same,DILI severity category,[2],Ambiguous DILI-concern
Nc1nc(=O)n([C@@H]2CS[C@H](CO)O2)cc1F [emtricitabine],"DILI +VE (5-8), DILI -VE (-4)",[5],-VE
same,DILI severity category,[6],Ambiguous DILI-concern
O=C([O-])[O-].O=C([O-])[O-].O=C([O-])[O-].[La+3].[La+3] [lanthanum carbonate],"DILI +VE (5-8), DILI -VE (-4)",in vivo,-VE
same,DILI severity category,in vivo,vNo-DILI-Concern
O=C1OC2(c3ccc(O)cc3Oc3cc(O)ccc32)c2ccccc21 [fluorescein],"DILI +VE (5-8), DILI -VE (-4)",[5],-VE
same,DILI severity category,[6],vNo-DILI-Concern
O=C1Nc2ccc(Cl)cc2C(c2ccccc2Cl)=NC1O (stereo not shown) [lorazepam],"DILI +VE (5-8), DILI -VE (-4)",[5],-VE
same,DILI severity category,[6],Ambiguous DILI-concern
OCCN1C[C@H](O)[C@@H](O)[C@H](O)[C@H]1CO [miglitol],"DILI +VE (5-8), DILI -VE (-4)",[1],-VE
same,DILI severity category,[2],vNo-DILI-Concern
OCCN1CCN(CCCN2c3ccccc3Sc3ccc(C(F)(F)F)cc32)CC1 [fluphenazine],"DILI +VE (5-8), DILI -VE (-4)",[5],-VE
same,DILI severity category,[6],Ambiguous DILI-concern
CCCC(=O)Nc1ccc(OCC(O)CNC(C)C)c(C(C)=O)c1 (stereo not shown) [acebutolol],DILI severity category,[3],vLess-DILI-Concern
Nc1ccc(S(=O)(=O)Nc2nccs2)cc1 [sulfathiazole],"DILI +VE (5-8), DILI -VE (-4)",[1],+VE
same,DILI severity category,[2],vMost-DILI-Concern
CN(C)CC(c1ccc(O)cc1)C1(O)CCCCC1 (stereo not shown) [desvenlafaxine],"DILI +VE (5-8), DILI -VE (-4)",[5],+VE
same,DILI severity category,[6],vLess-DILI-Concern
bivalirudin,DILI severity category,[3],vNo-DILI-Concern
same,"DILI +VE (5-8), DILI -VE (-4)",[4],-VE
C#CCN[C@@H]1CCc2ccccc21 [rasagiline],"DILI +VE (5-8), DILI -VE (-4)",[1],-VE
same,DILI severity category,[2],Ambiguous DILI-concern
CC(C)=CCN1CCC2(C)c3cc(O)ccc3CC1C2C (stereo not shown) [pentazocine],"DILI +VE (5-8), DILI -VE (-4)",[1],-VE
same,DILI severity category,[2],vNo-DILI-Concern
N[C@@H](C(=O)N[C@@H]1C(=O)N2C(C(=O)O)=C(Cl)CS[C@H]12)c1ccccc1 [cefaclor],DILI severity category,[3],vLess-DILI-Concern
Clc1ccc2nsnc2c1NC1=NCCN1 [tizanidine],"DILI +VE (5-8), DILI -VE (-4)",in vivo,+VE
same,DILI severity category,in vivo,vMost-DILI-Concern
N=C(N)NC(=O)Cc1c(Cl)cccc1Cl [guanfacine],"DILI +VE (5-8), DILI -VE (-4)",[5],-VE
same,DILI severity category,[6],Ambiguous DILI-concern
CC(C)(C)NC[C@H](O)COc1nsnc1N1CCOCC1 [timolol],"DILI +VE (5-8), DILI -VE (-4)",[1],-VE
same,DILI severity category,[2],Ambiguous DILI-concern
CO[C@H]1O[C@H](COS(=O)(=O)O)[C@@H](O[C@@H]2O[C@@H](C(=O)O)[C@@H](O[C@H]3O[C@H](COS(=O)(=O)O)[C@@H](O[C@@H]4O[C@H](C(=O)O)[C@@H](O[C@H]5O[C@H](COS(=O)(=O)O)[C@@H](O)[C@H](O)[C@H]5NS(=O)(=O)O)[C@H](O)[C@H]4O)[C@H](OS(=O)(=O)O)[C@H]3NS(=O)(=O)O)[C@H](O)[C@H]2OS(=O)(=O)O)[C@H](O)[C@H]1NS(=O)(=O)O [fondaparinux sodium],"DILI +VE (5-8), DILI -VE (-4)",[5],+VE
same,DILI severity category,[6],vLess-DILI-Concern
CN(C)CC[C@@H](c1ccc(Cl)cc1)c1ccccn1 [dexchlorpheniramine],"DILI +VE (5-8), DILI -VE (-4)",[5],-VE
same,DILI severity category,[6],vNo-DILI-Concern
C[C@]12CC[C@@H]3c4ccc(O)cc4C[C@@H](CCCCCCCCC[S+]([O-])CCCC(F)(F)C(F)(F)F)[C@H]3[C@@H]1CC[C@@H]2O (stereo partly shown) [fulvestrant],"DILI +VE (5-8), DILI -VE (-4)",[5],-VE
same,DILI severity category,[6],Ambiguous DILI-concern
Cc1onc(-c2ccccc2)c1-c1ccc(S(N)(=O)=O)cc1 [valdecoxib],DILI severity category,[3],vLess-DILI-Concern
same,"DILI +VE (5-8), DILI -VE (-4)","binary human DILI assignment, ref Chen 2016",+VE
CCCCCCCCNC(C)C(O)c1ccc(SC(C)C)cc1 (stereo not shown) [sulcotidil],"DILI +VE (5-8), DILI -VE (-4)",in vivo,+VE
same,DILI severity category,in vivo,vMost-DILI-Concern
Nc1ccn(C[C@@H](CO)OCP(=O)(O)O)c(=O)n1 [cidofovir],DILI severity category,[3],Ambiguous DILI-concern
same,"DILI +VE (5-8), DILI -VE (-4)",[4],-VE
